Experimental data taken from PubChem BioAssay AID330 (DTP/NCI, 2004).
Where “and” joins values, the source holds several entries; their conditions need not be identical. Equal entries are not always repeated. Toxic doses and inconclusive results are not listed.

Tested on: P388 leukemia ip, CD2F1 mice, survival T/C
Assay: NCI In Vivo Anticancer Drug Screen. Data for tumor model P388 Leukemia (intraperitoneal) in CD2F1 (CDF1) mice
Conditions: endpoint: median survival time, higher = longer survival
In short: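 Mice carrying the transplanted tumor received test compound or vehicle. Survival was recorded in each group, and the value is the treated-group measurement divided by that of the vehicle-treated control group.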

[1] = dose: 50.0 mg/kg/injection, schedule: Q01DX009 (ip), vehicle: Klucel (hydroxypropylcellulose) (HPC)
[2] = dose: 100.0 mg/kg/injection, schedule: Q01DX009 (ip), vehicle: Klucel (hydroxypropylcellulose) (HPC)
[3] = dose: 200.0 mg/kg/injection, schedule: Q01DX009 (ip), vehicle: Klucel (hydroxypropylcellulose) (HPC)
[4] = dose: 60.0 mg/kg/injection, schedule: Q01DX005 (ip), vehicle: saline with Tween-80
[5] = dose: 120.0 mg/kg/injection, schedule: Q01DX005 (ip), vehicle: saline with Tween-80
[6] = dose: 240.0 mg/kg/injection, schedule: Q01DX005 (ip), vehicle: saline with Tween-80
[7] = dose: 100.0 mg/kg/injection, schedule: Q01DX009 (ip), vehicle: saline with Tween-80
[8] = dose: 50.0 mg/kg/injection, schedule: Q01DX005 (ip), vehicle: saline with Tween-80
[9] = dose: 100.0 mg/kg/injection, schedule: Q01DX005 (ip), vehicle: saline with Tween-80
[10] = dose: 200.0 mg/kg/injection, schedule: Q01DX005 (ip), vehicle: saline with Tween-80
[11] = dose: 25.0 mg/kg/injection, schedule: Q01DX009 (ip), vehicle: Klucel (hydroxypropylcellulose) (HPC)
[12] = dose: 50.0 mg/kg/injection, schedule: Q01DX005 (ip), vehicle: Klucel (hydroxypropylcellulose) (HPC)
[13] = dose: 100.0 mg/kg/injection, schedule: Q01DX005 (ip), vehicle: Klucel (hydroxypropylcellulose) (HPC)
[14] = dose: 200.0 mg/kg/injection, schedule: Q01DX005 (ip), vehicle: Klucel (hydroxypropylcellulose) (HPC)

## CSc1c(C(=O)O)cc(C(C)(C)C)cc1C(=O)O
[1]
  T/C: 91 % of control
[2]
  T/C: 100 % of control
[3]
  T/C: 91 % of control

## CCO/C=C1/N=C(c2ccc(Cl)c([N+](=O)[O-])c2)OC1=O
[4]
  T/C: 108 % of control
[5]
  T/C: 106 % of control
[6]
  T/C: 107 % of control

## O=C(/C=C/C(=O)OCC(Cl)(Cl)Cl)OCC(Cl)(Cl)Cl
[7]
  T/C: 100 % of control
dose: 200.0 mg/kg/injection, schedule: Q01DX009 (ip), vehicle: saline with Tween-80
  T/C: 114 % of control
dose: 400.0 mg/kg/injection, schedule: Q01DX009 (ip), vehicle: saline with Tween-80
  T/C: 106 % of control

## COc1ccc(C(=O)CC(=O)CCC(=O)Nc2ccc(Cl)cc2Cl)cc1
[4]
  T/C: 103 % of control
[5]
  T/C: 101 % of control
[6]
  T/C: 92 % of control

## C[C@]12C=CC(=O)C(O)=C1CC[C@@H]1[C@@H]2CC[C@]2(C)OC(=O)CC[C@@H]12
dose: 5.5 mg/kg/injection, schedule: Q01DX005 (ip), vehicle: Klucel (hydroxypropylcellulose) (HPC)
  T/C: 106 % of control
dose: 11.0 mg/kg/injection, schedule: Q01DX005 (ip), vehicle: Klucel (hydroxypropylcellulose) (HPC)
  T/C: 106 % of control
dose: 22.0 mg/kg/injection, schedule: Q01DX005 (ip), vehicle: Klucel (hydroxypropylcellulose) (HPC)
  T/C: 101 % of control
dose: 44.0 mg/kg/injection, schedule: Q01DX005 (ip), vehicle: Klucel (hydroxypropylcellulose) (HPC)
  T/C: 106 % of control
dose: 88.0 mg/kg/injection, schedule: Q01DX005 (ip), vehicle: Klucel (hydroxypropylcellulose) (HPC)
  T/C: 106 % of control
dose: 176.0 mg/kg/injection, schedule: Q01DX005 (ip), vehicle: Klucel (hydroxypropylcellulose) (HPC)
  T/C: 107 % of control

## C=CCCCC1(c2ccccc2)C(=O)Oc2ccccc21 (stereo not given)
[8]
  T/C: 98 % of control
[9]
  T/C: 89 % of control
[10]
  T/C: 90 % of control

## CCCCOC(=O)C1=NNC(=O)C1
[11]
  T/C: 115 % of control
[1]
  T/C: 108 % of control
[2]
  T/C: 112 % of control
[3]
  T/C: 108 % of control

## CCn1c(C)c(COC(=O)NC)c(COC(=O)NC)c1-c1ccc(Cl)c(Cl)c1
dose: 6.25 mg/kg/injection, schedule: Q01DX009 (ip), vehicle: distilled water + Tween-80
  T/C: 150 % of control and 152 % of control
dose: 12.5 mg/kg/injection, schedule: Q01DX009 (ip), vehicle: distilled water + Tween-80
  T/C: 153 % of control

## Clc1nccc2c1ncn2[Te]n1cnc2c(Cl)nccc21
dose: 12.5 mg/kg/injection, schedule: Q04DX002 (ip), vehicle: saline
  T/C: 105 % of control
dose: 25.0 mg/kg/injection, schedule: Q04DX002 (ip), vehicle: saline
  T/C: 103 % of control

## OCC1OC(n2ccn(C3OC(CO)C(O)C3O)c2=S)C(O)C1O (stereo not given)
dose: 25.0 mg/kg/injection, schedule: Q04DX003 (ip), vehicle: water
  T/C: 103 % of control
dose: 50.0 mg/kg/injection, schedule: Q04DX003 (ip), vehicle: water
  T/C: 111 % of control
dose: 100.0 mg/kg/injection, schedule: Q04DX003 (ip), vehicle: water
  T/C: 111 % of control
dose: 200.0 mg/kg/injection, schedule: Q04DX003 (ip), vehicle: water
  T/C: 112 % of control
dose: 400.0 mg/kg/injection, schedule: Q04DX003 (ip), vehicle: water
  T/C: 111 % of control

## CC[C@@]1(O)C[C@H](OC2CC(N(C)C)C(O)C(C)O2)c2c(O)c3c(c(O)c2[C@H]1OC1CC(N(C)C)C(O)C(C)O1)C(=O)c1cccc(O)c1C3=O (stereo not given in full)
dose: 0.03 mg/kg/injection, schedule: Q01DX009 (ip), vehicle: other
  T/C: 118 % of control
dose: 0.03 mg/kg/injection, schedule: Q04DX003 (ip), vehicle: other
  T/C: 112 % of control
dose: 0.06 mg/kg/injection, schedule: Q04DX003 (ip), vehicle: other
  T/C: 114 % of control
dose: 0.13 mg/kg/injection, schedule: Q04DX003 (ip), vehicle: other
  T/C: 124 % of control
dose: 0.25 mg/kg/injection, schedule: Q04DX003 (ip), vehicle: other
  T/C: 121 % of control
dose: 0.5 mg/kg/injection, schedule: Q04DX003 (ip), vehicle: other
  T/C: 93 % of control

## c1ccc(-c2ccc(-c3ccccc3)cc2)cc1
dose: 12.5 mg/kg/injection, schedule: Q01DX009 (ip), vehicle: Klucel (hydroxypropylcellulose) (HPC)
  T/C: 109 % of control
[11]
  T/C: 97 % of control
[1]
  T/C: 98 % of control
[2]
  T/C: 98 % of control

## CC1(C)C=C(O)C(=O)C(O)=C1
dose: 15.0 mg/kg/injection, schedule: Q01DX005 (ip), vehicle: Klucel (hydroxypropylcellulose) (HPC)
  T/C: 102 % of control
dose: 30.0 mg/kg/injection, schedule: Q01DX005 (ip), vehicle: Klucel (hydroxypropylcellulose) (HPC)
  T/C: 102 % of control
[12]
  T/C: 116 % of control
dose: 60.0 mg/kg/injection, schedule: Q01DX005 (ip), vehicle: Klucel (hydroxypropylcellulose) (HPC)
  T/C: 103 % of control

## N#[N+]c1c([O-])ccc2ccccc12
dose: 25.0 mg/kg/injection, schedule: Q04DX002 (ip), vehicle: Klucel (hydroxypropylcellulose) (HPC)
  T/C: 92 % of control
dose: 50.0 mg/kg/injection, schedule: Q04DX002 (ip), vehicle: Klucel (hydroxypropylcellulose) (HPC)
  T/C: 104 % of control
dose: 100.0 mg/kg/injection, schedule: Q04DX002 (ip), vehicle: Klucel (hydroxypropylcellulose) (HPC)
  T/C: 90 % of control

## COC(=O)C1=C(C(=O)OC)P(I)(c2ccccc2)(c2ccccc2)N(C)C1(c1ccccc1)c1ccccc1
[12]
  T/C: 100 % of control
[13]
  T/C: 100 % of control
[14]
  T/C: 90 % of control

## CCOC1N(c2ccc(Cl)cc2)CN(C)CC1(C)C (stereo not given)
dose: 50.0 mg/kg/injection, schedule: Q01DX009 (ip), vehicle: saline with Tween-80
  T/C: 117 % of control
[7]
  T/C: 120 % of control

## CC(Cc1ccc2c(c1)OCO2)NN (stereo not given)
dose: 3.12 mg/kg/injection, schedule: Q01DX005 (ip), vehicle: saline
  T/C: 102 % of control
dose: 6.25 mg/kg/injection, schedule: Q01DX005 (ip), vehicle: saline
  T/C: 96 % of control
dose: 12.5 mg/kg/injection, schedule: Q01DX005 (ip), vehicle: saline
  T/C: 98 % of control

## COC(=O)CC1C(C)=CCC2C(=O)C=C(OC)C(=O)C21C (stereo not given)
[12]
  T/C: 101 % of control
[13]
  T/C: 101 % of control
[14]
  T/C: 100 % of control

## O=C(NO)c1cc(O)c(O)c(O)c1
dose: 50.0 mg/kg/injection, schedule: Q01DX005 (ip), vehicle: distilled water + Tween-80
  T/C: 121 % of control
dose: 100.0 mg/kg/injection, schedule: Q01DX009 (ip), vehicle: distilled water + Tween-80
  T/C: 168 % of control
dose: 200.0 mg/kg/injection, schedule: Q01DX005 (ip), vehicle: distilled water + Tween-80
  T/C: 155 % of control
dose: 200.0 mg/kg/injection, schedule: Q01DX009 (ip), vehicle: distilled water + Tween-80
  T/C: 197 % of control

## O=S(OC(c1ccccc1)(C(F)(F)F)C(F)(F)F)OC(c1ccccc1)(C(F)(F)F)C(F)(F)F
dose: 32.0 mg/kg/injection, schedule: Q01DX009 (ip), vehicle: Klucel (hydroxypropylcellulose) (HPC)
  T/C: 97 % of control
dose: 64.0 mg/kg/injection, schedule: Q01DX009 (ip), vehicle: Klucel (hydroxypropylcellulose) (HPC)
  T/C: 101 % of control
dose: 128.0 mg/kg/injection, schedule: Q01DX009 (ip), vehicle: Klucel (hydroxypropylcellulose) (HPC)
  T/C: 101 % of control

## NC(=S)n1nc(-c2ccccc2)c(N=Nc2ccc(O)cc2)c1-c1ccccc1
[8]
  T/C: 100 % of control
[9]
  T/C: 103 % of control
[10]
  T/C: 98 % of control

## Cc1ccc2nc(NC(=O)N(CCCl)N=O)sc2c1
dose: 400.0 mg/kg/injection, schedule: Q04DX003 (ip), vehicle: saline with Tween-80
  T/C: 168 % of control

## COc1ccc2c(c1OC)CCN1C3=C(CC(OC(=O)c4ccccc4)CC3)C(=O)CC21 (stereo not given)
dose: 100.0 mg/kg/injection, schedule: Q01DX001 (ip), vehicle: saline sonified
  T/C: 100 % of control
dose: 200.0 mg/kg/injection, schedule: Q01DX001 (ip), vehicle: saline sonified
  T/C: 110 % of control
dose: 400.0 mg/kg/injection, schedule: Q01DX001 (ip), vehicle: saline sonified
  T/C: 110 % of control

## COC(=O)c1cc(-c2ccc(N)cc2)c2c(=O)n(-c3ccccc3)[nH]c2n1
[4]
  T/C: 100 % of control
[5]
  T/C: 91 % of control
[6]
  T/C: 87 % of control

## CSCCC(NC(=O)c1cnc2ccccc2c1)C(N)=O (stereo not given)
[4]
  T/C: 103 % of control
[5]
  T/C: 97 % of control
[6]
  T/C: 87 % of control

## COC(=O)C1C2c3ccccc3C(C1C(=O)OC)[n+]1ccccc12 (stereo not given)
dose: 25.0 mg/kg/injection, schedule: Q01DX005 (ip), vehicle: Klucel (hydroxypropylcellulose) (HPC)
  T/C: 94 % of control
[12]
  T/C: 94 % of control
[13]
  T/C: 100 % of control
